Measurements as given in ChEMBL document CHEMBL1201862, “PubChem BioAssay data set” (2004).
The source made the active and inactive calls. For most assays here, no stated cut-off is given here; in the data, actives have a measured EC50 and inactives only a lower limit.

Assays:
[1] = biological target: T1, Leucine aminopeptidase (Plasmodium falciparum 3D7, UniProt Q8IL11); assay: P. falciparum M17LAP inhibitors, primary screen, biochemical, fluorogenic H-Leu-NHMec substrate, 1536-well (AID 1619); type: functional
T1 sequence (Q8IL11 whole entry): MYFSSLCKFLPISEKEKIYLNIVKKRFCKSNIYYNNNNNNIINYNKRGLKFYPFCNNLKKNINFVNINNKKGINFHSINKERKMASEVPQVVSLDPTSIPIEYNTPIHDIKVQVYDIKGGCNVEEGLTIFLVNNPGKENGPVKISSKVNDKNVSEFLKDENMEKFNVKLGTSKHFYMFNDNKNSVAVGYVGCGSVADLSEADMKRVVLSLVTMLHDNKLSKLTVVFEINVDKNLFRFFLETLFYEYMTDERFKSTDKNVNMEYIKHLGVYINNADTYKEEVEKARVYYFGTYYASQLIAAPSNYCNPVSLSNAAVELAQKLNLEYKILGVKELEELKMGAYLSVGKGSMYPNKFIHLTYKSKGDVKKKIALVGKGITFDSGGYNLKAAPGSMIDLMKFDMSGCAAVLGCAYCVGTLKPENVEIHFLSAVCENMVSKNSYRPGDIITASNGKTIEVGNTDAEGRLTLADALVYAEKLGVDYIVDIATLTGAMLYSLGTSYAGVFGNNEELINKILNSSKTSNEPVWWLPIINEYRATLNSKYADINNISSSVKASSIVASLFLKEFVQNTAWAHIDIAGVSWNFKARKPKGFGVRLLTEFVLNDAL

[2] = biological target: T2, Heat shock factor protein 1 (Mus musculus, UniProt P38532); assay: enhancement of HSF1-driven luciferase signal – cell-based, NIH3T3, luminescence, dose retest, confirmation (AID 435004); type: functional;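 further: stress induced by proteasome inhibitor MG132 added 30 min after compound; luciferase reporter driven by HSF1 response element in NIH3T3 cells; actives raise luminescence as potentiators of the MG132 stress response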
T2 sequence (P38532 whole entry): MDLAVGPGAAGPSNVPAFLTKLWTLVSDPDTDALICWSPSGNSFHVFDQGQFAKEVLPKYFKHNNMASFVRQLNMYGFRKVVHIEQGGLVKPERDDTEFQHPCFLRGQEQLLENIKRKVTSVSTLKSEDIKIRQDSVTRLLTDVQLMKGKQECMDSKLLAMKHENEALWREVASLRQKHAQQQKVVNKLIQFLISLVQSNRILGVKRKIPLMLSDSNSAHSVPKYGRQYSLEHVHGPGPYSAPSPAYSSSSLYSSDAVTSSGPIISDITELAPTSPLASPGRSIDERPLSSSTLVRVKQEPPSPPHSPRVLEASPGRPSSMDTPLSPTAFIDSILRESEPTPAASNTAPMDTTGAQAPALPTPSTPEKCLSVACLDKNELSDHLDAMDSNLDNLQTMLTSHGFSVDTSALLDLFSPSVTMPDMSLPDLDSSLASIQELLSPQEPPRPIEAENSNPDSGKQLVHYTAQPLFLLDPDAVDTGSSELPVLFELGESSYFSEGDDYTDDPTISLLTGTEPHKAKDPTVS

[3] = test system: BJ; assay: BJ-TERT-LT-ST fibroblast viability loss – cell-based, RAS-independent, luminescence, dose response (AID 1935); type: functional; settings: Homo sapiens;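 further: BJ fibroblasts immortalized with TERT plus LT and ST oncogenes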
[4] = Luminescence Cell-Based Dose Response HTS to Identify Inhibitors of 5'UTR Stem-Loop Driven Prion Protein mRNA Translation in H4 Neuroglioblastoma Cells. [Related pubchem assays: 1827 (Project Summary), 1813 (Primary HTS)]; type: functional
[5] = test system: BJ; assay: BJ-TERT fibroblast viability loss – cell-based, RAS-independent, luminescence, dose response (AID 1933); type: functional; settings: Homo sapiens
[6] = luciferase reporter signal suppression in cells – H4 neuroglioma cells, luminescence, dose response (AID 1990); type: functional, cell-based
[7] = DRD fibroblast viability loss – cell-based, non-viral oncogenic, luminescence, dose response (AID 1934); type: functional; settings: Homo sapiens
[8] = alpha-synuclein stem-loop luciferase translation blockers – H4 neuroglioma cells, luminescence, confirmation (AID 1988); type: functional, cell-based
[9] = test system: BJ; assay: cells; type: functional, cell-based; settings: Homo sapiens
[10] = biological target: T3, Calpain-2 catalytic subunit (Sus scrofa, UniProt P43367); assay: m-calpain protease blockers, concentration series – biochemical, fluorogenic peptide substrate, dose response (AID 1420); type: functional
T3 sequence (P43367 whole entry): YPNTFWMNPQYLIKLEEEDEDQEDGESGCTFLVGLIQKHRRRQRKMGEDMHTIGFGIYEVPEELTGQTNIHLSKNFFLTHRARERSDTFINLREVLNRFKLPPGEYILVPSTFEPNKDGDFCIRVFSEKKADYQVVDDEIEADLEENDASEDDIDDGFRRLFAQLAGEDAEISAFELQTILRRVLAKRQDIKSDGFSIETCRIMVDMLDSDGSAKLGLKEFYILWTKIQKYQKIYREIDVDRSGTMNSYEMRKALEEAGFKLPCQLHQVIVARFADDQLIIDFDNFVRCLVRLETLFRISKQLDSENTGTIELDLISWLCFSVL

[11] = cells; type: functional, cell-based
[12] = cells; type: functional, cell-based; remark: listed apart in the source
[13] = biological target: T4, Fatty acid synthase (Homo sapiens, UniProt P49327); assay: inhibition of human FAS-TE enzyme activity – biochemical, endpoint fluorescence intensity, uHTS hits, dose response (AID 624327); type: functional;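 further: fluorescence from hydrolysis of an O-methyl fluorescein acyl ester substrate by the enzyme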
T4 sequence (P49327 whole entry): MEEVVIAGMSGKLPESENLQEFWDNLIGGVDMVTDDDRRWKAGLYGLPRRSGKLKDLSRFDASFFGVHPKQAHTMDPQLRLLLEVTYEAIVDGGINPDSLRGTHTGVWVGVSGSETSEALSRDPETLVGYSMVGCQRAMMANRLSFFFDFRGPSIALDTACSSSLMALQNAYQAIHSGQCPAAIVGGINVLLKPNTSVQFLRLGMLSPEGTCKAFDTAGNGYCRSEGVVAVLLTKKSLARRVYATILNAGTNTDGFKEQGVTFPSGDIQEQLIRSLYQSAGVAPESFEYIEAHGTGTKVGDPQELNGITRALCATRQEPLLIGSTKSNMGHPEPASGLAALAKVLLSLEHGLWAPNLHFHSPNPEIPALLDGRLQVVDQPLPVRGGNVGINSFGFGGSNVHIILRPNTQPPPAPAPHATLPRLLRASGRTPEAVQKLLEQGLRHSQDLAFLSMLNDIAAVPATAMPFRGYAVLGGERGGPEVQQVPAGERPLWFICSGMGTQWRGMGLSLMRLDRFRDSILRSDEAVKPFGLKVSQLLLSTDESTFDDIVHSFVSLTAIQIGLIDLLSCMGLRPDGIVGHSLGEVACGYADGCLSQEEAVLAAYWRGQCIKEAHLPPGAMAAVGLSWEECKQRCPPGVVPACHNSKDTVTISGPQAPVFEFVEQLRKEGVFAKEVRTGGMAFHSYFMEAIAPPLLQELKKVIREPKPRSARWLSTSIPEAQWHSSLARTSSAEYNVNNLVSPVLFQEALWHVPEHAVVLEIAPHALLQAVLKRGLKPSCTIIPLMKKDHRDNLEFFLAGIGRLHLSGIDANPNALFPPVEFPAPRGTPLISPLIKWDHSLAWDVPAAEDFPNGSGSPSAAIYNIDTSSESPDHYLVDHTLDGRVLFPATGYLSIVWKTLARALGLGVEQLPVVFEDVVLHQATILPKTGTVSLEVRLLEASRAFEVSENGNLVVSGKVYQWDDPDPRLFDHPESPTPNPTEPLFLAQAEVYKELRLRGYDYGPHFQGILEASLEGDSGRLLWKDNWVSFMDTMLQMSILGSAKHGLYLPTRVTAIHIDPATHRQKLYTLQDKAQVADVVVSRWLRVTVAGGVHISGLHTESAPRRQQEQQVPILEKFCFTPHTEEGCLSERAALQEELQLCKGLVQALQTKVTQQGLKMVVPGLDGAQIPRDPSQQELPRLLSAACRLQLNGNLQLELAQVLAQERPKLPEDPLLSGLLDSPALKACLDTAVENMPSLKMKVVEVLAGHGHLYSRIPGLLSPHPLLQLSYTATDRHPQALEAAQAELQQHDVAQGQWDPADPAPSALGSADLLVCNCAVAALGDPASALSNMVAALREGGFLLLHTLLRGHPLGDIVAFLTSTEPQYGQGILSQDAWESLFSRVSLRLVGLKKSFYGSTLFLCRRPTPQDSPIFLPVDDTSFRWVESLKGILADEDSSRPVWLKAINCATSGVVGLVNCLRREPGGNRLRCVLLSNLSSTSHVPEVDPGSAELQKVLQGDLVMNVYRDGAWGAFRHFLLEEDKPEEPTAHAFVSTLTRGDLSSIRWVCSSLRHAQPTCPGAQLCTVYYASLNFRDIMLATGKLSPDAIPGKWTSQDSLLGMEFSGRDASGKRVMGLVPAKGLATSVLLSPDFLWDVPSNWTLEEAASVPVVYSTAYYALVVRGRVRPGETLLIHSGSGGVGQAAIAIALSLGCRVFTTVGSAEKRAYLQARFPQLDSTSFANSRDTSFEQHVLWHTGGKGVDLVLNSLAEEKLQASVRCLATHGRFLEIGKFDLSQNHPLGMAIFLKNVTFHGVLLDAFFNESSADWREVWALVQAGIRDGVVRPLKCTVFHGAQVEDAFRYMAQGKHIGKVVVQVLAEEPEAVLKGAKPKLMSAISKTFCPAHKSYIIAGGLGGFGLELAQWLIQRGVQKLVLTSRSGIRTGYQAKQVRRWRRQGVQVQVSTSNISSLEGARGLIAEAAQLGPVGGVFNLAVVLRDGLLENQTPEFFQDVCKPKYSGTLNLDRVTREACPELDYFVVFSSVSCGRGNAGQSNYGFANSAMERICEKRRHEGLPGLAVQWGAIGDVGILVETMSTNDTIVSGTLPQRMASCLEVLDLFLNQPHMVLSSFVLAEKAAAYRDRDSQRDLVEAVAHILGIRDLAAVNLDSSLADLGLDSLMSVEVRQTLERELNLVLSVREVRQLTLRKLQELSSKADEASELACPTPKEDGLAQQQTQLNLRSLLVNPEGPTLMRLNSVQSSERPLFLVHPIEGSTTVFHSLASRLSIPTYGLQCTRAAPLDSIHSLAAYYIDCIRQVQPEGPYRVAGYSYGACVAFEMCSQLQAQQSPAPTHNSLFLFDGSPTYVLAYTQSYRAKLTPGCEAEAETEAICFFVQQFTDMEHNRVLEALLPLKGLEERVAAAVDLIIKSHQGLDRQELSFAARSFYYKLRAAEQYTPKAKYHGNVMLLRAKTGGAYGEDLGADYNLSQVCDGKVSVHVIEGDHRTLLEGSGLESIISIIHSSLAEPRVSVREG

[14] = biological target: T4, Fatty acid synthase; assay: inhibition of human FAS-TE enzyme activity – biochemical, kinetic fluorescence intensity, dose response (AID 624326); type: functional;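 further: rate of fluorescence rise from hydrolysis of a fluorogenic O-methyl fluorescein ester substrate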
[15] = test system: Streptococcus; assay: GAS UMAA2166 growth inhibition – luminescence, BacTiterGlo, counter-screen for streptokinase expression inhibitor project, dose response (AID 1915); type: functional, organism-based;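 further: potency for reduction of bacterial viability or growth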
[16] = biological target: Induced myeloid leukemia cell differentiation protein Mcl-1 (Homo sapiens, UniProt Q07820); type: functional
Sequence of Induced myeloid leukemia cell differentiation protein Mcl-1 (Q07820 whole entry): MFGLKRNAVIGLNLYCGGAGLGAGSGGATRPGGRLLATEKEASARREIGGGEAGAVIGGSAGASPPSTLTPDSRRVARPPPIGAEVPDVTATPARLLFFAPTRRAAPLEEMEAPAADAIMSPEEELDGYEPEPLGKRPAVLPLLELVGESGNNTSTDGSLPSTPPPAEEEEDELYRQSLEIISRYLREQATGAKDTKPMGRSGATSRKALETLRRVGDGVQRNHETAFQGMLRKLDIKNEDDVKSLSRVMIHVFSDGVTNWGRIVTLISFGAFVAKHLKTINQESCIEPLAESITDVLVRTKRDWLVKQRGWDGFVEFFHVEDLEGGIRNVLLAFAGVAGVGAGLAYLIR

[17] = test system: Streptococcus sp. 'group A'; assay: Streptococcus pyogenes SK(-)GAS viability under kanamycin – luminescence, BacTiterGlo, confirmation, counter-screen for streptokinase expression inhibitor project, dose response (AID 1900); type: functional, organism-based
[18] = biological target: T5, DNA repair protein RAD52 homolog (Homo sapiens, UniProt P43351); type: functional, biochemical
T5 sequence (P43351 whole entry): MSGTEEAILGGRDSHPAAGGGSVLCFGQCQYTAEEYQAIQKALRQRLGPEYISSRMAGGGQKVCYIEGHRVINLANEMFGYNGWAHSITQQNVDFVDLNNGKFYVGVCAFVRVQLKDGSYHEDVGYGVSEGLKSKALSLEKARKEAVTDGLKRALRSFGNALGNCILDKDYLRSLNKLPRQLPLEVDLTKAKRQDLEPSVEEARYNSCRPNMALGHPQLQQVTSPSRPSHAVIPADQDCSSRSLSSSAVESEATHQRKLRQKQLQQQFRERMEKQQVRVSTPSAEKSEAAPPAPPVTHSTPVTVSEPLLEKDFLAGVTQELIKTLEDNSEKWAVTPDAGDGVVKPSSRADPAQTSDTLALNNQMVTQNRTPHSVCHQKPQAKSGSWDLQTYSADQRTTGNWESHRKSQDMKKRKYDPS

[19] = NIH3T3 cell viability loss – ATP luminescence, mouse fibroblasts, counter-screen, dose response (AID 2010); type: functional, cell-based;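 further: cells exposed to compound for about 90 hours before reading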
[20] = biological target: T6, Ubiquitin-conjugating enzyme E2 N (Homo sapiens, UniProt P61088); type: functional;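 further: Dose-response confirmation in a TR-FRET assay detecting UBC13-driven polyubiquitin chain formation, inhibition measured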
T6 sequence (P61088 whole entry): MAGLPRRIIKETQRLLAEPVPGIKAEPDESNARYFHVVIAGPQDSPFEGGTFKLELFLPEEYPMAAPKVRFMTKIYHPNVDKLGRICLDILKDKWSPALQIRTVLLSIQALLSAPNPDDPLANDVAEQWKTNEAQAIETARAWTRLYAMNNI

[21] = viability of HCT116 lacking mutant beta-catenin – cell-based, human colon tumor, dose response (AID 1045); type: functional;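 further: HCT116 colon tumor cells with beta catenin knocked out; cells exposed to compound for 60 hours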
[22] = viability of PTEN-deleted HCT116 cells – cell-based, HCT116 PTEN knockout, dose response (AID 1047); type: functional;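 further: HCT116 colon tumor cells with PTEN knocked out; cells exposed to compound for 60 hours before readout; potency for loss of cell viability measured by luminescence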
[23] = Trypanosoma cruzi growth suppression in host cells – NIH3T3 host cells, beta-gal luminescence, confirmation (AID 2044); type: functional, cell-based;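 further: intracellular parasites grown in NIH/3T3 mouse fibroblasts as host cells; luminescent beta-galactosidase reporter signal from transgenic T. cruzi replicating inside host cells; inhibitors lower the luminescence signal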
[24] = A cytotoxicity screen of small molecule inhibitors of the PhoP region in Salmonella typhi identified in the primary screen. [Related pubchem assays: 1850, 1864, 1985 ]; type: functional

In the case of `O=C(O)CC12C[C@H]3C[C@@H](C1)CC(n1ncc(N4CCN(c5ccccc5)CC4)c(Cl)c1=O)(C3)C2`, the IC50 [1] is reported as 152 µM (active) and the EC50 [2] is reported as > 260 µM (inactive).

In the case of `O=C(CN1C(=O)CCSc2ccccc21)Nc1ccc2c(c1)OCCO2`, the IC50 [1] is reported as 16.1 µM (active).

For `CCN(CC(=O)NCc1ccc(F)cc1)C(=O)/C=C/c1ccc(OC)c(S(=O)(=O)NC(C)C)c1`, the EC50 [3] was 4.34 µM (inconclusive), the EC50 [4] was > 120 µM (not active) and the EC50 [5] was 9.24 µM (inconclusive). The EC50 [6] was > 120 µM (not active), the EC50 [7] was 13.7 µM (inconclusive) and the EC50 [8] was 9.81 µM (active). For the same molecule, the EC50 [9] was 13.4 µM (active).

In the case of `CCOC(=O)[C@H]1O[C@@H]1C(=O)N[C@@H](CC(C)C)C(=O)NCCC(C)C` [ALOXISTATIN], the IC50 [10] is reported as 1.77 µM (active).

With `CSCCC(NC(=O)c1c(C)oc2c1CCCC2)C(=O)O` (stereo not given) the IC50 [1] was 35.9 µM (active).

For `O=C(CN(Cc1ccc(F)cc1)C(=O)CCC(=O)Nc1nccs1)NCC1CCCO1` (stereo not given), the EC50 [11] was > 350 µM (not active) and the EC50 [12] was 35.3 µM (active).

For `Cc1c(OCC(=O)NC(Cc2ccc(Cl)cc2)C(=O)O)ccc2c(-c3ccccc3)cc(=O)oc12` (stereo not given), the IC50 [13] was 6.45 µM (active) and the IC50 [14] was 13.3 µM (active).

For `O=C(O)c1ccc(N/N=C/c2ccc(-c3ccc(Cl)cc3Cl)o2)cc1`, the EC50 [15] was 2.33 µM (active), the IC50 [13] was 7.07 µM (active) and the IC50 [14] was 3.65 µM (active). The IC50 [16] was 3.56 µM (active) and the EC50 [17] was 1.46 µM (active).

For `CC1Cc2ccccc2N1C(=O)COC(=O)C1(c2ccccc2F)CCCC1` (stereo not given), the IC50 [10] was 7.23 µM (not active).

In the case of `CCN1CCN(CCCNC(=O)C2CCN(c3nnc(-n4c(C)ccc4C)s3)CC2)CC1`, the AC50 [18] is reported as 9.22 µM (active).

With `O=C(Cn1cc(/C=N/O)c2ccccc21)N1CCOCC1` the IC50 [1] was 78.9 µM (active).

With `Cc1cc(OCC(=O)Nc2ccc3c(c2)OCCO3)cc(C)c1Cl` the EC50 [11] was > 350 µM (not active) and the EC50 [12] was > 350 µM (not active).

For `CCc1ccc(OCC(O)CN2CCC(CN3C(=O)c4cccc5cccc(c45)C3=O)CC2)cc1` (stereo not given), the EC50 [19] was > 60 µM (not active), the IC50 [20] was > 20 µM (inactive) and the EC50 [21] was 5.43 µM (active). For the same molecule, the EC50 [22] was 6.53 µM (active) and the EC50 [23] was 1.84 µM (active).

For `O=C(Oc1ccc2c(c1)OCO2)C12CC3CC(CC(C3)C1)C2`, the IC50 [10] was 5.49 µM (not active).

With `O=C(N/N=C/c1ccc(N2CCCC2)c([N+](=O)[O-])c1)c1cccnc1` the EC50 [24] was > 50 µM (active).

With `CCOc1c(Br)cc(CNc2ccc3c(c2)OCCO3)cc1OC` the EC50 [3] was 1.41 µM (inconclusive), the EC50 [4] was 3.63 µM (active) and the EC50 [5] was 2.12 µM (active). The EC50 [6] was 4.32 µM (active), the EC50 [7] was 1.29 µM (active) and the EC50 [8] was 0.31 µM (active). For the same molecule, the EC50 [9] was 17.7 µM (active).
